Several values for one entry are separate records, joined by “and”; a condition that tells them apart may be missing. Equal values may be shown once.
System: 324938-238-R-J1-PDC complex spheroids viability
Test: Anticancer human tumor 324938-238-R-J1-PDC patient-derived bladder carcinoma cell line growth inhibition [CLK]
Details: for viability, T/C: stronger effect = lower value
How it was run: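 Multi-cell-type spheroids combined patient-derived tumor cells with HUVEC endothelial cells and human mesenchymal stem cells. Paired agents were dosed in half-log steps down from about clinical Cmax, or from 10 microM where Cmax was unknown.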

[1] = curve of first compound, second compound 0.0316 µM
[2] = curve of first compound, second compound 0.1 µM
[3] = curve of first compound, second compound 0.316 µM
[4] = curve of first compound, second compound 1 µM
[5] = curve of first compound, second compound 3.16 µM
[6] = curve of first compound, second compound 10 µM
[7] = second compound 0.0316 µM, first compound 0.0316 µM
[8] = second compound 0.0316 µM, first compound 0.1 µM
[9] = second compound 0.0316 µM, first compound 0.316 µM
[10] = second compound 0.0316 µM, first compound 1 µM
[11] = second compound 0.0316 µM, first compound 3.16 µM
[12] = second compound 0.0316 µM, first compound 10 µM
[13] = second compound 0.1 µM, first compound 0.0316 µM
[14] = second compound 0.1 µM, first compound 0.1 µM
[15] = second compound 0.1 µM, first compound 0.316 µM
[16] = second compound 0.1 µM, first compound 1 µM
[17] = second compound 0.1 µM, first compound 3.16 µM
[18] = second compound 0.1 µM, first compound 10 µM
[19] = second compound 0.316 µM, first compound 0.0316 µM
[20] = second compound 0.316 µM, first compound 0.1 µM
[21] = second compound 0.316 µM, first compound 0.316 µM
[22] = second compound 0.316 µM, first compound 1 µM
[23] = second compound 0.316 µM, first compound 3.16 µM
[24] = second compound 0.316 µM, first compound 10 µM
[25] = second compound 1 µM, first compound 0.0316 µM
[26] = second compound 1 µM, first compound 0.1 µM
[27] = second compound 1 µM, first compound 0.316 µM
[28] = second compound 1 µM, first compound 1 µM
[29] = second compound 1 µM, first compound 3.16 µM
[30] = second compound 1 µM, first compound 10 µM
[31] = second compound 3.16 µM, first compound 0.0316 µM
[32] = second compound 3.16 µM, first compound 0.1 µM
[33] = second compound 3.16 µM, first compound 0.316 µM
[34] = second compound 3.16 µM, first compound 1 µM
[35] = second compound 3.16 µM, first compound 3.16 µM
[36] = second compound 3.16 µM, first compound 10 µM
[37] = second compound 10 µM, first compound 0.0316 µM
[38] = second compound 10 µM, first compound 0.1 µM
[39] = second compound 10 µM, first compound 0.316 µM
[40] = second compound 10 µM, first compound 1 µM
[41] = second compound 10 µM, first compound 3.16 µM
[42] = second compound 10 µM, first compound 10 µM
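Also: viability read after seven days of drug exposure.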
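For viability, T/C in this document: 100% = DMSO vehicle control wells.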

SMILES: COc1cccc2c1C(=O)c1c(O)c3c(c(O)c1C2=O)CC(O)(C(=O)CO)CC3OC1CC(N)C(O)C(C)O1 (centres undefined) + CNC(=O)c1ccc(Nc2nc(OC3CCCC3)c3c(-c4ccc5nc(C)oc5c4)c[nH]c3n2)c(OC)c1
- IC50 [1]: < 31.6 nM
- IC50 [2]: < 31.6 nM
- IC50 [3]: < 31.6 nM
- IC50 [4]: < 31.6 nM
- IC50 [5]: < 31.6 nM
- IC50 [6]: < 31.6 nM
- viability, T/C [7]: 19.3%
- viability, T/C [8]: 16.8%
- viability, T/C [9]: 9.74%
- viability, T/C [10]: 0.7%
- viability, T/C [11]: 0.12%
- viability, T/C [12]: 0.14%
- viability, T/C [13]: 18.5%
- viability, T/C [14]: 20.2%
- viability, T/C [15]: 9.65%
- viability, T/C [16]: 0.48%
- viability, T/C [17]: 0.11%
- viability, T/C [18]: 0.15%
- viability, T/C [19]: 19.1%
- viability, T/C [20]: 16.3%
- viability, T/C [21]: 9.12%
- viability, T/C [22]: 0.49%
- viability, T/C [23]: 0.16%
- viability, T/C [24]: 0.13%
- viability, T/C [25]: 17.2%
- viability, T/C [26]: 11.7%
- viability, T/C [27]: 7.13%
- viability, T/C [28]: 0.58%
- viability, T/C [29]: 0.14%
- viability, T/C [30]: 0.15%
- viability, T/C [31]: 20.2%
- viability, T/C [32]: 12.2%
- viability, T/C [33]: 6.62%
- viability, T/C [34]: 0.36%
- viability, T/C [35]: 0.14%
- viability, T/C [36]: 0.16%
- viability, T/C [37]: 18.3%
- viability, T/C [38]: 13.4%
- viability, T/C [39]: 5.95%
- viability, T/C [40]: 0.31%
- viability, T/C [41]: 0.19%
- viability, T/C [42]: 0.23%

SMILES: C#Cc1c(F)ccc2cc(O)cc(-c3ncc4c(N5CC6CCC(C5)N6)nc(OCC56CCCN5CC(F)C6)nc4c3F)c12 (centres undefined)
- viability, T/C (compound 0.0316 µM): 80% and 86.4%
- viability, T/C (compound 0.1 µM): 69.2% and 79.7%
- viability, T/C (compound 0.316 µM): 56.7% and 70%
- viability, T/C (compound 1 µM): 64.9% and 53.9%
- viability, T/C (compound 3.16 µM): 48.4% and 41.9%
- viability, T/C (compound 10 µM): 41.9% and 38%
- IC50 (curve of compound): 2920 nM and 1470 nM

SMILES: O=c1[nH]cc(F)c(=O)[nH]1
- viability, T/C (compound 0.0316 µM): 83.8% and 80.7%
- viability, T/C (compound 0.1 µM): 66.9% and 79.9%
- viability, T/C (compound 0.316 µM): 24.9% and 37%
- viability, T/C (compound 1 µM): 19.4% and 26%
- viability, T/C (compound 3.16 µM): 16.1% and 20.8%
- viability, T/C (compound 10 µM): 16.1% and 20.9%
- IC50 (curve of compound): 159 nM and 223 nM

SMILES: Nc1ccn(C2OC(CO)C(O)C2(F)F)c(=O)n1 (centres undefined) + CNC(=O)c1ccc(Nc2nc(OC3CCCC3)c3c(-c4ccc5nc(C)oc5c4)c[nH]c3n2)c(OC)c1
- IC50 [1]: < 31.6 nM
- IC50 [2]: < 31.6 nM
- IC50 [3]: < 31.6 nM
- IC50 [4]: < 31.6 nM
- IC50 [5]: < 31.6 nM
- IC50 [6]: < 31.6 nM
- viability, T/C [7]: 38.6%
- viability, T/C [8]: 16.4%
- viability, T/C [9]: 15.2%
- viability, T/C [10]: 14%
- viability, T/C [11]: 10.6%
- viability, T/C [12]: 8.72%
- viability, T/C [13]: 23%
- viability, T/C [14]: 18.8%
- viability, T/C [15]: 12.8%
- viability, T/C [16]: 14.2%
- viability, T/C [17]: 10.3%
- viability, T/C [18]: 7.12%
- viability, T/C [19]: 17.1%
- viability, T/C [20]: 14.8%
- viability, T/C [21]: 12.3%
- viability, T/C [22]: 12.5%
- viability, T/C [23]: 8.68%
- viability, T/C [24]: 7.82%
- viability, T/C [25]: 15%
- viability, T/C [26]: 15.4%
- viability, T/C [27]: 12.2%
- viability, T/C [28]: 11.6%
- viability, T/C [29]: 9.63%
- viability, T/C [30]: 8.24%
- viability, T/C [31]: 17.1%
- viability, T/C [32]: 13.7%
- viability, T/C [33]: 13%
- viability, T/C [34]: 12%
- viability, T/C [35]: 8.99%
- viability, T/C [36]: 9.03%
- viability, T/C [37]: 18%
- viability, T/C [38]: 12.9%
- viability, T/C [39]: 14.3%
- viability, T/C [40]: 12.1%
- viability, T/C [41]: 13.4%
- viability, T/C [42]: 8.05%

SMILES: CCc1c2c(nc3ccc(O)cc13)-c1cc3c(c(=O)n1C2)COC(=O)[C@]3(O)CC
- viability, T/C (compound 0.00316 µM): 14.5% and 16.4%
- viability, T/C (compound 0.01 µM): 10.3% and 12.2%
- viability, T/C (compound 0.0316 µM): 10.7% and 11.6%
- viability, T/C (compound 0.1 µM): 10.8% and 13.9%
- viability, T/C (compound 0.316 µM): 7.67% and 11.4%
- viability, T/C (compound 1 µM): 2.3% and 1.78%
- IC50 (curve of compound): < 3.16 nM

SMILES: O=C(c1cc(Cc2n[nH]c(=O)c3ccccc23)ccc1F)N1CCN(C(=O)C2CC2)CC1 + CNC(=O)c1ccc(Nc2nc(OC3CCCC3)c3c(-c4ccc5nc(C)oc5c4)c[nH]c3n2)c(OC)c1
- IC50 [1]: 4260 nM
- IC50 [2]: < 31.6 nM
- IC50 [3]: < 31.6 nM
- IC50 [4]: < 31.6 nM
- IC50 [5]: < 31.6 nM
- IC50 [6]: < 31.6 nM
- viability, T/C [7]: 90.9%
- viability, T/C [8]: 78.5%
- viability, T/C [9]: 83.2%
- viability, T/C [10]: 77.7%
- viability, T/C [11]: 56.9%
- viability, T/C [12]: 29.4%
- viability, T/C [13]: 31.1%
- viability, T/C [14]: 27.2%
- viability, T/C [15]: 24.9%
- viability, T/C [16]: 28%
- viability, T/C [17]: 30.4%
- viability, T/C [18]: 20.8%
- viability, T/C [19]: 18.6%
- viability, T/C [20]: 20.8%
- viability, T/C [21]: 16.2%
- viability, T/C [22]: 21.2%
- viability, T/C [23]: 19%
- viability, T/C [24]: 17.9%
- viability, T/C [25]: 15.9%
- viability, T/C [26]: 15.2%
- viability, T/C [27]: 16.8%
- viability, T/C [28]: 15.3%
- viability, T/C [29]: 17.7%
- viability, T/C [30]: 15.8%
- viability, T/C [31]: 16.9%
- viability, T/C [32]: 17.1%
- viability, T/C [33]: 19.4%
- viability, T/C [34]: 17.3%
- viability, T/C [35]: 15.5%
- viability, T/C [36]: 17.7%
- viability, T/C [37]: 16.2%
- viability, T/C [38]: 14.3%
- viability, T/C [39]: 15.3%
- viability, T/C [40]: 18.2%
- viability, T/C [41]: 16.1%
- viability, T/C [42]: 17.4%

SMILES: CC(Nc1ccc2c(c1)OCCn1cc(N3C(=O)OCC3C(F)F)nc1-2)C(N)=O (centres undefined) + CNC(=O)c1ccc(Nc2nc(OC3CCCC3)c3c(-c4ccc5nc(C)oc5c4)c[nH]c3n2)c(OC)c1
- IC50 [1]: 169 nM
- IC50 [2]: < 31.6 nM
- IC50 [3]: < 31.6 nM
- IC50 [4]: < 31.6 nM
- IC50 [5]: < 31.6 nM
- IC50 [6]: < 31.6 nM
- viability, T/C [7]: 78.8%
- viability, T/C [8]: 52.5%
- viability, T/C [9]: 42.1%
- viability, T/C [10]: 35.5%
- viability, T/C [11]: 22.2%
- viability, T/C [12]: 15.3%
- viability, T/C [13]: 32.2%
- viability, T/C [14]: 28.1%
- viability, T/C [15]: 25%
- viability, T/C [16]: 21.1%
- viability, T/C [17]: 20.2%
- viability, T/C [18]: 13.6%
- viability, T/C [19]: 14%
- viability, T/C [20]: 10.9%
- viability, T/C [21]: 9.84%
- viability, T/C [22]: 9.27%
- viability, T/C [23]: 6.34%
- viability, T/C [24]: 5.89%
- viability, T/C [25]: 13.4%
- viability, T/C [26]: 12.3%
- viability, T/C [27]: 8.46%
- viability, T/C [28]: 6.86%
- viability, T/C [29]: 5.9%
- viability, T/C [30]: 4.88%
- viability, T/C [31]: 13.1%
- viability, T/C [32]: 9.57%
- viability, T/C [33]: 9.31%
- viability, T/C [34]: 7.44%
- viability, T/C [35]: 7.17%
- viability, T/C [36]: 4.87%
- viability, T/C [37]: 14.4%
- viability, T/C [38]: 9.66%
- viability, T/C [39]: 9.38%
- viability, T/C [40]: 7.73%
- viability, T/C [41]: 7.48%
- viability, T/C [42]: 4.64%

Source: PubChem BioAssay AID2060621 (Molecular Pharmacology Branch, DTP, NCI, 2025)
